Measurements: PubChem BioAssay (NCI)
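Dose response: 5 concentrations. Exposure: 48 h. Format: 96-well plates. Endpoint: linear interpolation; highest concentration if not reached. The concentration for 50% growth inhibition is given as GI50. TGI: total growth inhibition.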

Key:
Assay in all cases: growth of human tumour cells (NCI), 48 h
[1] = tested on: SK-MEL-28 melanoma
[2] = tested on: MDA-MB-231 breast
[3] = tested on: NCI-H460 lung
[4] = tested on: UACC-257 melanoma
[5] = tested on: T-47D breast
[6] = tested on: HT29 colon
[7] = tested on: ACHN renal
[8] = tested on: COLO 205 colon
[9] = tested on: TK-10 renal
[10] = tested on: SK-MEL-2 melanoma
[11] = tested on: RXF 393 renal
[12] = tested on: CAKI-1 renal
[13] = tested on: HCT-116 colon
[14] = tested on: KM12 colon
[15] = tested on: MALME-3M melanoma
[16] = tested on: M14 melanoma
[17] = tested on: HOP-92 NSCLC
[18] = tested on: SF-295 CNS
[19] = tested on: SW-620 colon
[20] = tested on: OVCAR-3 ovarian
[21] = tested on: EKVX NSCLC
[22] = tested on: SR leukemia
[23] = tested on: K-562 leukemia
[24] = tested on: OVCAR-4 ovarian
[25] = tested on: PC-3 prostate
[26] = tested on: MDA-MB-435
[27] = tested on: RPMI-8226 leukemia
[28] = tested on: HS 578T breast
[29] = tested on: HOP-62 NSCLC

Q: With `O=C(NNc1nc2cc(F)cc(F)c2n2cccc12)c1ccncn1` as the molecule, how does the GI50 [1] read?
A: Its GI50 is greater than 30 µM.

Q: And the TGI [1]?
A: Its TGI is greater than 30 µM.

Q: And the GI50 [2]?
A: Its GI50 is greater than 30 µM.

Q: What about the TGI [2] of the same molecule?
A: Its TGI is greater than 30 µM.

Q: What about the GI50 [3] of the same molecule?
A: Its GI50 is greater than 30 µM.

Q: What about the TGI [3] of the same molecule?
A: The TGI was greater than 30 µM.

Q: What about the GI50 [4] of the same molecule?
A: The GI50 was greater than 30 µM.

Q: And the TGI [4]?
A: The TGI was greater than 30 µM.

Q: What about the GI50 [5] of the same molecule?
A: Its GI50 is greater than 30 µM.

Q: And the TGI [5]?
A: The TGI was greater than 30 µM.

Q: And the GI50 [6]?
A: The GI50 was greater than 30 µM.

Q: What about the TGI [6] of the same molecule?
A: The TGI was greater than 30 µM.

Q: And the GI50 [7]?
A: The GI50 was greater than 30 µM.

Q: And the TGI [7]?
A: The TGI was greater than 30 µM.

Q: What about the GI50 [8] of the same molecule?
A: The GI50 was greater than 30 µM.

Q: What about the TGI [8] of the same molecule?
A: Its TGI is greater than 30 µM.

Q: And the GI50 [9]?
A: The GI50 was greater than 30 µM.

Q: And the TGI [9]?
A: The TGI was greater than 30 µM.

Q: And the GI50 [10]?
A: The GI50 was greater than 30 µM.

Q: And the TGI [10]?
A: The TGI was greater than 30 µM.

Q: And the GI50 [11]?
A: The GI50 was greater than 30 µM.

Q: What about the TGI [11] of the same molecule?
A: Its TGI is greater than 30 µM.

Q: And the GI50 [12]?
A: The GI50 was greater than 30 µM.

Q: What about the TGI [12] of the same molecule?
A: Its TGI is greater than 30 µM.

Q: What about the GI50 [13] of the same molecule?
A: The GI50 was greater than 30 µM.

Q: What about the TGI [13] of the same molecule?
A: Its TGI is greater than 30 µM.

Q: What about the GI50 [14] of the same molecule?
A: The GI50 was greater than 30 µM.

Q: What about the TGI [14] of the same molecule?
A: The TGI was greater than 30 µM.

Q: What about the GI50 [15] of the same molecule?
A: Its GI50 is greater than 30 µM.

Q: And the TGI [15]?
A: Its TGI is greater than 30 µM.

Q: And the GI50 [16]?
A: Its GI50 is greater than 30 µM.

Q: What about the TGI [16] of the same molecule?
A: Its TGI is greater than 30 µM.

Q: What about the GI50 [17] of the same molecule?
A: Its GI50 is greater than 30 µM.

Q: And the TGI [17]?
A: Its TGI is greater than 30 µM.

Q: What about the GI50 [18] of the same molecule?
A: The GI50 was greater than 30 µM.

Q: What about the TGI [18] of the same molecule?
A: The TGI was greater than 30 µM.

Q: What about the GI50 [19] of the same molecule?
A: The GI50 was greater than 30 µM.

Q: What about the TGI [19] of the same molecule?
A: The TGI was greater than 30 µM.

Q: And the GI50 [20]?
A: The GI50 was greater than 30 µM.

Q: And the TGI [20]?
A: Its TGI is greater than 30 µM.

Q: What about the GI50 [21] of the same molecule?
A: The GI50 was greater than 30 µM.

Q: What about the TGI [21] of the same molecule?
A: The TGI was greater than 30 µM.

Q: What about the GI50 [22] of the same molecule?
A: Its GI50 is greater than 30 µM.

Q: What about the TGI [22] of the same molecule?
A: The TGI was greater than 30 µM.

Q: And the GI50 [23]?
A: The GI50 was greater than 30 µM.

Q: And the TGI [23]?
A: Its TGI is greater than 30 µM.

Q: And the GI50 [24]?
A: The GI50 was greater than 30 µM.

Q: And the TGI [24]?
A: Its TGI is greater than 30 µM.

Q: What about the GI50 [25] of the same molecule?
A: The GI50 was greater than 30 µM.

Q: What about the TGI [25] of the same molecule?
A: The TGI was greater than 30 µM.

Q: What about the GI50 [26] of the same molecule?
A: Its GI50 is greater than 30 µM.

Q: And the TGI [26]?
A: Its TGI is greater than 30 µM.

Q: And the GI50 [27]?
A: The GI50 was greater than 30 µM.

Q: What about the TGI [27] of the same molecule?
A: Its TGI is greater than 30 µM.

Q: What about the GI50 [28] of the same molecule?
A: Its GI50 is greater than 30 µM.

Q: What about the TGI [28] of the same molecule?
A: The TGI was greater than 30 µM.

Q: And the GI50 [29]?
A: The GI50 was greater than 30 µM.

Q: And the TGI [29]?
A: The TGI was greater than 30 µM.
